Here are results for two compounds from publication PMC6952399, “Structures of lipoprotein signal peptidase II from Staphylococcus aureus complexed with antibiotics globomycin and myxovirescin” (Nature Communications, 2020).

The target of one assay is T1, LspMrs G54A (Staphylococcus aureus, UniProt Q6GHN9, G54A).
T1 construct: MGSS-hexahistidine-SSGR-TEV site (ENLYFQ) (N, cleaved yes); made in house; host or cells: E. coli C43 (DE3)
As to the kind of experiment: Gel-shift peptidase assay, LspMrs G54A mutant. It is filed as biochemical, methicillin-resistant Staphylococcus aureus. The procedure:
(§1) LspA mutant genes (N52A, N52Q, G54A, G54P, R110A, R110K, D118N, N133A, N133Q and D136N) were obtained by site-directed mutagenesis of the wild-type lspA construct in pETDuet. Mutagenesis was performed using the Q5® Site-Directed Mutagenesis Kit (New England Biolabs) and specific primers are listed in Supplementary Table 5. The correct mutations were confirmed by sequencing (Eurofins Genomics). Expression and purification of all LspMrs wild-type and mutants for enzyme assays were performed as described above with the following modifications: TALON® Metal Affinity Resin (Clontech) was used for IMAC purification and the detergent DDM was used for membrane solubilisation and protein purification.
(§2) The peptidase activity of LspMrs and P. aeruginosa LspA (LspPae) was quantified in a coupled gel-shift assay developed previously for LspPae[5]. The P. aeruginosa lipoprotein pre-proICP and the first two enzymes in the bacterial lipoprotein processing pathway Lgt and LspA were expressed and purified, as described. For FRET assays LspMrs was expressed and purified as described above and LspPae was expressed and purified as described in a published protocol.
(§3) Gel-shift activity assay. […] Band intensities of ICP were quantified using Image Lab. […]

The target in assay [1] is T2, LspMrs (lipoprotein signal peptidase II from methicillin-resistant Staphylococcus aureus) (Staphylococcus aureus, UniProt Q6GHN9).
T2 construct: MGSS-hexahistidine-SSGR-TEV site (ENLYFQ) (N, cleaved yes); made in house; host or cells: E. coli C43 (DE3)
The experiment in a line: FRET lipopeptide peptidase assay, LspMrs. The assay is classed as biochemical. Particulars: for IC50: IC50, FRET, 0.3 µM enzyme, 80 µM substrate, initial rates; for Rate (RFU/min): replicates 1 and 2. The procedure: FRET activity assays. A FRET based assay was developed using a labelled lipopeptide substrate (Supplementary Methods, Supplementary Fig. 3b) to directly monitor the protease activity of LspA. The optimised LspMrs assay buffer included 100 mM Tris/HCl pH 7.8, 150 mM NaCl and 0.09%(w/v) DDM. The corresponding optimized buffer for LspPae included 100 mM MES/NaOH pH 5.6, 150 mM NaCl and 0.05%(w/v) LMNG. All assays were performed at 37 °C.
Reaction mixtures were prepared by pipetting the FRET lipopeptide substrate (dissolved in DMSO) directly into assay buffer at a final concentration of 80 µM. Reaction mixtures were prepared by vortexing (Clifton, cyclone CM-1) for 2 s and incubated at 37 °C, 800 rpm for 10 to 30 min. Equal volumes of the reaction mixture were pipetted into 1.5 mL Eppendorf tubes and 0 to 150 µM globomycin or myxovirescin (in DMSO) added. For dose-response assays, the final DMSO concentration in all reactions was 10%(v/v). Reaction mixtures were pipetted into wells of a 96- (Thermo Scientific) or a 384-well plate (4titude®) and incubated for 10 min at 37 °C in a SpectraMax M3 or a SpectraMax M5e plate reader (Molecular devices) prior to starting the assay. Assays were initiated by adding enzyme to a final concentration in the range 10–300 nM. Total reaction mixture volume was 50 μL. Reactions were monitored by fluorescence (Ex/Em, 320 nm/420 nm) for 30 to 60 min at 37 °C. Initial rates were calculated from the fluorescence intensity versus time progress curves (Supplementary Figs. 5 and 6). Occasionally, lag periods in the progress curves were observed (Supplementary Discussion). In such cases, initial rates were calculated after the lag period had passed (typically 1–5 min) and a steady rate had been established. Dose-response plots to determine IC50 values were generated using Prism® 5 software from GraphPad.
It was possible to convert units of fluorescence change into moles of substrate consumed or products formed because pure products of LspA action on Abz-LALAGC*SS-nY-NH2 had been synthesized and were available. These were used to create a standard curve of fluorescence versus moles of the two products in equimolar amounts and to calculate specific activity values.

The next assay concerns the target T3, LspMrs N52Q (Staphylococcus aureus, UniProt Q6GHN9, N52Q).
T3 construct: MGSS-hexahistidine-SSGR-TEV site (ENLYFQ) (N, cleaved yes); made in house; host or cells: E. coli C43 (DE3)
As to the kind of experiment: Gel-shift peptidase assay, LspMrs N52Q mutant. It is filed as biochemical, methicillin-resistant Staphylococcus aureus. The procedure:
as §1, §2, §3

The next assay concerns LspA from E. coli. On the set-up: method as in earlier work. Particulars: ref 7 (supplementary references); cited from earlier work.
A further assay deals with T4, LspMrs N52A (Staphylococcus aureus, UniProt Q6GHN9, N52A).
T4 construct: MGSS-hexahistidine-SSGR-TEV site (ENLYFQ) (N, cleaved yes); made in house; host or cells: E. coli C43 (DE3)
As to the kind of experiment: Gel-shift peptidase assay, LspMrs N52A mutant. The assay is classed as biochemical, methicillin-resistant Staphylococcus aureus. As to the method:
as §1, §2, §3

Several values for one entry are separate records, joined by “and”; a condition that tells them apart may be missing. Equal entries are not always repeated.

Broadly, the IC50 is the concentration at which inhibition is half-maximal. For `CCCC1OC(=O)C(C)CC(C)CCCCC(=O)CCCC(CC)C=CC=C(COC)CCC(O)C(O)CC(O)CNC1=O` (stereo not shown) [myxovirescin, myxovirescin A1], the IC50 on LspMrs G54A came out at 0.57 ± 0.01 µM; in assay [1], 0.151 µM; on LspMrs N52Q it was 0.29 ± 0.08 µM. Further, the “Rate (RFU/min)” value was 0 RFU/min in assay [1] (LspMrs + Myxovirescin, log [myxovirescin] (µM) 0.00); 0 RFU/min in assay [1] (LspMrs + Myxovirescin, log [myxovirescin] (µM) -0.30); 0 RFU/min and 0.13 RFU/min in assay [1] (LspMrs + Myxovirescin, log [myxovirescin] (µM) -0.52); 0.55 RFU/min and 0.58 RFU/min in assay [1] (LspMrs + Myxovirescin, log [myxovirescin] (µM) -0.70); 1.04 RFU/min in assay [1] (LspMrs + Myxovirescin, log [myxovirescin] (µM) -1.00); 1.47 RFU/min and 1.55 RFU/min in assay [1] (LspMrs + Myxovirescin, log [myxovirescin] (µM) -2.00). The “Rate (RFU/min)” value in assay [1] (LspMrs + Myxovirescin, log [myxovirescin] (µM) -3.00) was 1.49 RFU/min and 1.52 RFU/min.
`CCCCCC[C@H]1OC(=O)CNC(=O)[C@H]([C@H](C)O)NC(=O)[C@H](CO)NC(=O)[C@H]([C@H](C)CC)NC(=O)[C@H](CC(C)C)N(C)C(=O)[C@@H]1C` [globomycin]: the inhibition type entry in the assay with LspA from E. coli is recorded as “non-competitive”. Further, the IC50 at LspMrs G54A was 1.78 ± 0.25 µM; at LspMrs N52A it was 1.23 ± 0.59 µM; in assay [1], 0.17 µM and 0.167 µM; on LspMrs N52Q, 2.43 ± 0.34 µM. Moreover, the “Rate (RFU/min)” value in assay [1] (LspMrs + Globomycin, log [globomycin] (µM) 0.00) is 0 RFU/min; in assay [1] (LspMrs + Globomycin, log [globomycin] (µM) -0.30), 0 RFU/min; in assay [1] (LspMrs + Globomycin, log [globomycin] (µM) -0.52), 0.33 RFU/min and 0.27 RFU/min; in assay [1] (LspMrs + Globomycin, log [globomycin] (µM) -0.70), 0.64 RFU/min and 0.57 RFU/min; in assay [1] (LspMrs + Globomycin, log [globomycin] (µM) -1.00) it was 1.06 RFU/min and 1.05 RFU/min; in assay [1] (LspMrs + Globomycin, log [globomycin] (µM) -2.00), 1.47 RFU/min and 1.55 RFU/min. Further, the “Rate (RFU/min)” value in assay [1] (LspMrs + Globomycin, log [globomycin] (µM) -3.00) was 1.53 RFU/min and 1.49 RFU/min.
